In publication PMC6467762 (ACS infectious diseases, 2018):
“Also recorded” adds a separate entry of the source. Read-outs that look alike come from different tables or passages of the source.

Key:
[1] = test system: PfDHODH; settings: cited from earlier work
[2] = test system: P. falciparum Dd2 R3B (DHODH E182D); assay: P. falciparum growth EC50 determination; type: cell-based; settings: Plasmodium falciparum, DD2|DSM265, read-out: DSM265 EC50
[3] = test system: P. falciparum Dd2 WT; assay: microbe, parasite or virus in culture; type: cell-based; settings: Plasmodium falciparum, DD2|DSM265, read-out: DSM265 EC50
[4] = test system: P. falciparum Dd2^Dhodh C276Y (CRISPR/Cas9-edited clones); assay: In vitro 72 h drug susceptibility assay, CRISPR/Cas9 study; type: cell-based; settings: Plasmodium falciparum, DD2|DSM265, read-out: DSM265 EC50
[5] = test system: P. falciparum Dd2 R10ClB (DHODH G181C); assay: P. falciparum growth EC50 determination; type: cell-based; settings: Plasmodium falciparum, DD2|DSM265, read-out: DSM265 EC50
[6] = test system: P. falciparum; settings: number of parasites; cited from earlier work
[7] = test system: P. falciparum Dd2 R1BClA (DHODH L531F); assay: P. falciparum growth EC50 determination; type: cell-based; settings: Plasmodium falciparum, DD2|DSM265, read-out: DSM265 EC50
[8] = neutral pH; cited from earlier work
[9] = test system: P. falciparum sporozoite; settings: cited from earlier work
[10] = test system: P. falciparum malaria; settings: cited from earlier work
[11] = test system: P. falciparum Dd2 BSmut control; assay: In vitro 72 h drug susceptibility assay, CRISPR/Cas9 study; type: cell-based; settings: Plasmodium falciparum, DD2|DSM265, read-out: DSM265 EC50
[12] = test system: P. falciparum Dd2 parent; assay: as above; type: cell-based; settings: Plasmodium falciparum, DD2|DSM265, read-out: DSM265 EC50
[13] = test system: P. vivax; settings: compared with P. falciparum; cited from earlier work
[14] = test system: P. falciparum Dd2 R2B (DHODH R265G); assay: P. falciparum growth EC50 determination; type: cell-based; settings: Plasmodium falciparum, DD2|DSM265, read-out: DSM265 EC50
[15] = test system: P. falciparum blood stage; settings: humans; cited from earlier work
[16] = test system: P. falciparum Dd2 RIAClB (DHODH C276F); assay: P. falciparum growth EC50 determination; type: cell-based; settings: Plasmodium falciparum, DD2|DSM265, read-out: DSM265 EC50
[17] = single ascending dose (25–1200 mg), humans; cited from earlier work
[18] = test system: DSM265-resistant P. falciparum Dd2 parasites; assay: Drug sensitivity of DSM265-resistant Dd2 parasites; type: cell-based, Plasmodium falciparum; settings: DSM265-selected Dd2 mutant lines; values in Table S1 (not available)
[19] = test system: P. falciparum line from second round of DSM1 selections (increased dhodh copy number); settings: cited from earlier work

Cc1cc(Nc2ccc3ccccc3c2)n2ncnc2n1 [DSM1, 5-methyl-N-(naphthalen-2-yl)-[1,2,4]triazolo[1,5-a]pyrimidin-7-amine]
Mode of inhibition [1]: competitive inhibitor of CoQ

Cc1cc(Nc2ccc(S(F)(F)(F)(F)F)cc2)n2nc(C(C)(F)F)nc2n1 [DSM265, 2-(1,1-difluoroethyl)-5-methyl-[N-[4-(pentafluorosulfanyl)phenyl] 1,2,4]triazolo[1,5-a]pyrimidin-7-amine]
EC50 [2]: 71 ± 13 nM | EC50 [3]: 4.6 ± 1.1 nM | EC50 [4]: 120 ± 26 nM | EC50 [5]: 150 ± 51 nM | Minimum inoculum of resistance for the emergence of DSM265-resistant parasites [6]: ≥ 10^5 | EC50 [7]: 110 ± 17 nM | Solubility limit [8]: ~ 30 μM | Protection from infection ([9]; dosed 3 or 7 days before challenge): partial protection | Protection from infection ([9]; single dose of 400 mg given 1 day prior to challenge): full protection | Cure rate ([10]; single dose of 250 mg): 60% | Patients parasite free, extended 28-day endpoint ([10]; single dose of 400 mg): 8/9 | EC50 [11]: 5.1 ± 0.31 nM | EC50 [12]: 4.8 ± 0.86 nM | Efficacy against P. vivax [13]: lower | EC50 [14]: 150 ± 73 nM | Efficacy in blood stage human challenge study [15]: demonstrating efficacy | EC50 [16]: 170 ± 55 nM | Safety [17]: good safety

C[C@@H]1CC[C@H]2[C@@H](C)C(=O)O[C@@H]3O[C@@]4(C)CC[C@@H]1[C@]32OO4 [artemisinin]
Sensitivity of DSM265-resistant parasites (EC50 vs parent Dd2) [18]: fully sensitive; also recorded: retained full sensitivity

O=C1C(O)=C([C@H]2CC[C@H](c3ccc(Cl)cc3)CC2)C(=O)c2ccccc21 [atovaquone]
Sensitivity of DSM265-resistant parasites (EC50 vs parent Dd2) [18]: retained full sensitivity; also recorded: fully sensitive | Sensitivity of DSM1-selected, dhodh-amplified cell line [19]: partial tolerance
